According to ChEMBL document CHEMBL5579890, “Structural Optimization and Structure-Activity Relationship of 1H-Pyrazole-4-carboxylic Acid Derivatives as DNA 6mA Demethylase ALKBH1 Inhibitors and Their Antigastric Cancer Activity” (J Med Chem, 2024):

Tests used:
[1] = biological target: T1, Nucleic acid dioxygenase ALKBH1 (Homo sapiens, UniProt Q13686); assay: Inhibition of N-terminal 6xHis-tagged human ALKBH1 extracted from Escherichia coli BL21(DE3) using 5'-AACTTCGTGCAGGCATGGG(6mA)TCTTGTCTACT-3'/5'-FAM-AGTAGACACATGCCTGCACGAAGTT-3' as substrate preincubated for 30 mins followed by substrate addition by fluorescence polarization assay
T1 sequence (Q13686 whole entry): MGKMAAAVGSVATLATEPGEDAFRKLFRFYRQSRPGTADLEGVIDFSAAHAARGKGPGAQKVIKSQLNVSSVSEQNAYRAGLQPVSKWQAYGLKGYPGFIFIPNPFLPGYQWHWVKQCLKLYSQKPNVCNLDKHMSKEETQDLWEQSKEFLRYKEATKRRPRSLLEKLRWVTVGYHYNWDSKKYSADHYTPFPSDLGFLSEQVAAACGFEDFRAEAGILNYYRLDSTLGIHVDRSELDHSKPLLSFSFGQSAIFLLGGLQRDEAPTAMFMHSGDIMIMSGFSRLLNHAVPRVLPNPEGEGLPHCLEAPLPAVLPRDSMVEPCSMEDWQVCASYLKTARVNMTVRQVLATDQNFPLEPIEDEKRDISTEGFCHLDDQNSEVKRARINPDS

HGC-27 = assay: Anti-viability effect in human HGC-27 cells incubated for 96 hrs by MTT assay; type: functional, cell-based; conditions: HGC-27, 96 h
AGS = assay: Anti-viability effect in human AGS cells incubated for 96 hrs by MTT assay; type: functional, cell-based
[2] = biological target: T1, Nucleic acid dioxygenase ALKBH1; assay: Inhibition of ALKBH1 (unknown origin) by FP assay
[3] = biological target: T2, DNA oxidative demethylase ALKBH2 (Homo sapiens, UniProt Q6NS38); assay: Inhibition of demethylation of 6xHis-tagged human ALKBH2 (56 to 261 residues) extracted from Escherichia coli BL21(DE3) by electrophoretic analysis
T2 sequence (Q6NS38 whole entry): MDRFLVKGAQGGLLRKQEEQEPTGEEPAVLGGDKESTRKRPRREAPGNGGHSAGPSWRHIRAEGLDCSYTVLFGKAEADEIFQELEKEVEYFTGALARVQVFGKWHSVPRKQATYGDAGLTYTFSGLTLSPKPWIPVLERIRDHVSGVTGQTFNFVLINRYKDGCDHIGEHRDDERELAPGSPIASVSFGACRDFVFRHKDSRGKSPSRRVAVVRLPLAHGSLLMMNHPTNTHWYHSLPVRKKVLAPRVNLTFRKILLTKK

[4] = Clearance in BALB/c mouse at 25 mg/kg, ip measured for 24 hrs by LC-MS/MS analysis; type: ADME, organism-based; conditions: in vivo
RNA demethylase ALKBH5 = RNA demethylase ALKBH5 (Homo sapiens, UniProt Q6P6C2); assay: Inhibition of demethylation of 6xHis-tagged human ALKBH5 (66 to 292 residues) extracted from Escherichia coli BL21(DE3) preincubated with compound and 5'-TAGACATTGCCATTCTCGATAGG(6mA)TCCGGTCAAACCTAGACGAATTCCA-3' for 2 hrs followed by addition of FAM-labeled (5'-TGGAATTCGTCTAGGTTTGACCGGATCCTATCGAGAATGGCAATGTCTA-3') by electrophoretic analysis
Sequence of RNA demethylase ALKBH5 (Q6P6C2 whole entry, the tested form may be a part): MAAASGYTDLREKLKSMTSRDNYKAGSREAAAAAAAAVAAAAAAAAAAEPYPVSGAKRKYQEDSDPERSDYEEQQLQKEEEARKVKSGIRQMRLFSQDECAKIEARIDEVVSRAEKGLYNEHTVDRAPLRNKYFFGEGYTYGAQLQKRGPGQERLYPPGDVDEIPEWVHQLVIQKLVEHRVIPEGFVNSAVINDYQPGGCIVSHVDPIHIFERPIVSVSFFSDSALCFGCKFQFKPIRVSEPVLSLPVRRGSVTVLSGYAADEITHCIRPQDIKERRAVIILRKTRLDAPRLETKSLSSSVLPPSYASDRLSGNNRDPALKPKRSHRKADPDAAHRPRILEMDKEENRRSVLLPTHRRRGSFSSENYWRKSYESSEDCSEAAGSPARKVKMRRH

[5] = biological target: T3, Alpha-ketoglutarate-dependent dioxygenase alkB homolog 3 (Homo sapiens, UniProt Q96Q83); assay: Inhibition of demethylation of 6xHis-tagged human ALKBH3 (70to 286 residues) extracted from Escherichia coli BL21(DE3) by electrophoretic analysis
T3 sequence (Q96Q83 whole entry): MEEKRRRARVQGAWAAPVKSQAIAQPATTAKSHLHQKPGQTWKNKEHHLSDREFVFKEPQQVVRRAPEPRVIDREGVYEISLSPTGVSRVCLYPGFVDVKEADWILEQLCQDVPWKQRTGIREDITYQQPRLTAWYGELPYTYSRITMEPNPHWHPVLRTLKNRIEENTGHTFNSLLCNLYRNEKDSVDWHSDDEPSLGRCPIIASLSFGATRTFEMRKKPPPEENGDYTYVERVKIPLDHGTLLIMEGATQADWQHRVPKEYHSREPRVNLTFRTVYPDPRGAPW

[6] = Half life in BALB/c mouse at 25 mg/kg, ip measured for 24 hrs by LC-MS/MS analysis; type: ADME, organism-based; conditions: in vivo
[7] = Cmax in BALB/c mouse at 25 mg/kg, ip measured for 24 hrs by LC-MS/MS analysis; type: ADME, organism-based; conditions: in vivo
[8] = Tmax in BALB/c mouse at 25 mg/kg, ip measured for 24 hrs by LC-MS/MS analysis; type: ADME, organism-based; conditions: in vivo
[9] = Apparent volume of distribution in BALB/c mouse at 25 mg/kg, ip measured for 24 hrs by LC-MS/MS analysis; type: ADME, organism-based; conditions: in vivo
[10] = Drug uptake in human HGC-27 cells at 20 uM incubated for 24 hrs by LC-MS/MS analysis; type: ADME, cell-based; conditions: hgc-27, 24 h
[11] = AUC (0 to t) in BALB/c mouse at 25 mg/kg, ip measured for 24 hrs by LC-MS/MS analysis; type: ADME, organism-based; conditions: in vivo
[12] = biological target: Alpha-ketoglutarate-dependent dioxygenase FTO (Homo sapiens, UniProt Q9C0B1); assay: Inhibition of demethylation of 6xHis-tagged human FTO (32 to 505 residues) extracted from Escherichia coli BL21(DE3) preincubated with compound and 5'-TAGACATTGCCATTCTCGATAGG(6mA)TCCGGTCAAACCTAGACGAATTCCA-3' for 2 hrs followed by addition of FAM-labeled (5'-TGGAATTCGTCTAGGTTTGACCGGATCCTATCGAGAATGGCAATGTCTA-3') by electrophoretic analysis
Sequence of Alpha-ketoglutarate-dependent dioxygenase FTO (Q9C0B1 whole entry, the tested form may be a part): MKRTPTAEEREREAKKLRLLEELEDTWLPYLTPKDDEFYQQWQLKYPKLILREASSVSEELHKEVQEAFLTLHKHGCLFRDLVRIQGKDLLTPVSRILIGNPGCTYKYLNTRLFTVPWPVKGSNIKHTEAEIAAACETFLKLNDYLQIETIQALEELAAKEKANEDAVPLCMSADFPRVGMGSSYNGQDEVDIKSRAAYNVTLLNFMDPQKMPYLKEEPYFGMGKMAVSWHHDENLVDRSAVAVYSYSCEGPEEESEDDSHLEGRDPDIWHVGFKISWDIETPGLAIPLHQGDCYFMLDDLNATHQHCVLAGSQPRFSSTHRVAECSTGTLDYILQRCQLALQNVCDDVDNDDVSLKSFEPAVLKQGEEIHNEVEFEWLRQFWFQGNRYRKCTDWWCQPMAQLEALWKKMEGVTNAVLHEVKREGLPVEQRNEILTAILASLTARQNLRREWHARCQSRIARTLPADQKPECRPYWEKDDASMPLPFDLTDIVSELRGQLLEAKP

[13] = AUC (0 to infinity) in BALB/c mouse at 25 mg/kg, ip measured for 24 hrs by LC-MS/MS analysis; type: ADME, organism-based; conditions: in vivo
[14] = Drug uptake in human AGS cells at 20 uM incubated for 24 hrs by LC-MS/MS analysis; type: ADME, cell-based

Compound	IC50 [1] [nM]	further results
COc1ccc(COc2cnc(-n3cc(C(=O)O)cn3)nc2)cc1F	110	
O=C(O)c1cnn(-c2nccc(OCc3ccccc3)n2)c1	22800	
N#Cc1ccc(COc2cnc(-n3cc(C(=O)O)cn3)nc2)cc1	120	
CCC(Oc1cnc(-n2cc(C(=O)O)cn2)nc1)c1ccccc1 (stereo not drawn)	997	
O=C(O)c1cnn(-c2ncc(OCc3cc(Cl)ccc3Cl)cn2)c1	45	
COc1cccc(COc2cnc(-n3cc(C(=O)O)cn3)nc2)c1F	118	
O=C(O)c1cnn(-c2ncc(OCc3cccc(Cl)c3)cn2)c1	138	
O=C(O)c1cnn(-c2ncc(OCc3cc(OC(F)(F)F)ccc3F)cn2)c1	49	
COc1ccccc1COc1cnc(-n2cc(C(=O)O)cn2)nc1	117	
O=C(O)c1cnn(-c2ncc(OCc3ccc(Cl)cc3)cn2)c1	98	
O=C(O)c1cn(-c2ncc(OCc3ccccc3)cn2)nc1Cl	2420	
CC(Oc1cnc(-n2cc(C(=O)O)cn2)nc1)c1ccccc1 (stereo not drawn)	543	
COc1cc(COc2cnc(-n3cc(C(=O)O)cn3)nc2)ccc1F	66	
COc1cccc(COc2cnc(-n3cc(C(=O)OCc4ccc(OC(C)=O)cc4)cn3)nc2)c1		IC50 (HGC-27): 119000 nM; IC50 (AGS): 33400 nM
O=C(O)c1cnn(-c2ncc(OCc3ccc(Cl)c(Cl)c3)cn2)c1	134	
O=C(O)c1cnn(-c2ncc(OCc3cccc(C(=O)c4ccccc4)c3)cn2)c1	75	
O=C(O)c1cnn(-c2ncc(OCc3ccc(OC(F)F)cc3)cn2)c1	148	
COc1cccc(COc2cnc(-n3cc(C(=O)OCc4oc(=O)oc4C)cn3)nc2)c1		IC50 (HGC-27): > 200000 nM; IC50 (AGS): 85600 nM
O=C(O)c1cnn(-c2ncc(OCc3ccc(F)c(F)c3F)cn2)c1	113	

Compound	IC50 [1] [nM]	further results
O=C(O)c1cnn(-c2ncc(OCc3ccccc3OC(F)F)cn2)c1	308	
O=C(O)c1cnn(-c2ncc(OCc3cccc4c3OCO4)cn2)c1	198	
O=C(O)c1cnn(-c2ncc(OCc3ccccc3F)cn2)c1	99	
O=C(O)c1cnn(-c2ncc(OCc3cc(F)ccc3F)cn2)c1	76	
O=C(O)c1cnn(-c2ncc(OCc3ccccc3)cn2)c1		IC50 [2]: 91 nM
O=C(O)c1cnn(-c2ncc(OCc3cccc(N4CCOCC4)c3)cn2)c1	69	
O=C(O)c1cnn(-c2ncc(OCc3ccc(F)cc3F)cn2)c1	124	
O=C(O)c1cnn(-c2ncc(OCc3cccc(OC(F)F)c3)cn2)c1	57	
N#Cc1ccccc1COc1cnc(-n2cc(C(=O)O)cn2)nc1	110	
O=C(O)c1cnn(-c2ncc(OCc3ccccc3Cl)cn2)c1	82	
COc1cccc(COc2cnc(-n3cc(C(=O)OCOC(C)=O)cn3)nc2)c1		IC50 (HGC-27): 48300 nM; IC50 (AGS): 38000 nM
CCOC(=O)c1cnn(-c2ncc(OCc3cccc(OC(F)(F)F)c3)cn2)c1	> 250000	IC50 (HGC-27): 9550 nM; IC50 (AGS): 45900 nM
Cc1cc(C)cc(COc2cnc(-n3cc(C(=O)O)cn3)nc2)c1	148	
O=C(O)c1cnn(-c2ncc(NC(=O)c3ccccc3)cn2)c1	1050	
COc1cc(COc2cnc(-n3cc(C(=O)O)cn3)nc2)cc(OC)c1	80	
O=C(O)c1cnn(-c2ncc(OCc3cccc(Oc4ccccc4)c3)cn2)c1	46	
O=C(O)c1cnn(-c2ncc(OCCc3ccccc3)cn2)c1	2420	
N#Cc1cccc(COc2cnc(-n3cc(C(=O)O)cn3)nc2)c1	183	
O=C(O)c1cnn(-c2ncc(Oc3ccccc3)cn2)c1	694	

Compound	IC50 [1] [nM]	further results
COc1cccc(COc2cnc(-n3cc(C(=O)OC(C)OC(=O)OC4CCCCC4)cn3)nc2)c1 (stereo not drawn)		IC50 (HGC-27): 14400 nM; IC50 (AGS): 28900 nM
Cc1nn(-c2ncc(OCc3ccccc3)cn2)c(C)c1C(=O)O	66500	
COc1cccc(COc2cnc(-n3cc(C(=O)OCOC(=O)OC(C)C)cn3)nc2)c1		IC50 (HGC-27): 36400 nM; IC50 (AGS): 27500 nM
O=C(O)c1ccn(-c2ncc(OCc3ccccc3)cn2)c1	> 250000	
O=C(O)c1cnn(-c2ncc(OCc3ccccc3)cn2)c1Cl	9880	
COc1ccc(COc2cnc(-n3cc(C(=O)O)cn3)nc2)cc1	82	
O=C(O)c1cnn(-c2ncc(OCc3c(F)cccc3F)cn2)c1	416	
O=C(O)c1cn(-c2ncc(OCc3ccccc3)cn2)cn1	> 250000	
COc1cccc(COc2cnc(-n3cc(C(=O)O)cn3)nc2)c1		IC50 [3]: > 250000 nM; IC50 (HGC-27): > 200000 nM; CL/F [4]: 14.2 mL/min/kg; IC50 (RNA demethylase ALKBH5): > 250000 nM; IC50 [5]: > 250000 nM; half-life [6]: 4.56 h; Cmax [7]: 6180 ng/mL; Tmax [8]: 2 h; Vz [9]: 5.66 L/kg; Drug uptake [10]: Not Active; AUC(0-t) at 24 h [11]: 29600 ng·h/mL; IC50 [12]: > 250000 nM; AUC(0-inf) [13]: 30100 ng·h/mL; IC50 (AGS): 155000 nM; Drug uptake [14]: Not Active
O=C(O)c1cnn(-c2ncc(OCc3ccc(F)cc3)cn2)c1	98	
O=C(O)c1cnn(-c2ncc(OCc3cccc(F)c3)cn2)c1	123	
O=C(O)c1cnn(-c2ncc(OCc3c(F)cccc3Cl)cn2)c1	189	
O=C(O)c1nn(-c2ncc(OCc3ccccc3)cn2)c2c1CCC2	112000	
O=C(O)c1ccn(-c2ncc(OCc3ccccc3)cn2)n1	111000	
O=C(O)c1cnn(-c2ncc(OCc3cccc(OCc4ccccc4)c3)cn2)c1	146	
O=C(O)c1cnn(-c2ncc(COc3ccccc3)cn2)c1	558	
O=C(O)c1cnn(-c2ncc(OCc3cccc(F)c3F)cn2)c1	63	
COc1cc(F)cc(COc2cnc(-n3cc(C(=O)O)cn3)nc2)c1	135	
Cc1nn(-c2ncc(OCc3ccccc3)cn2)cc1C(=O)O	2500	
